Data taken from patent US11787847B2, “Method of identifying malodor modulating compounds” (FIRMENICH SA, priority 2017, dated 2023).
pEC50: −log10 of the molar value.

Key:
mouse receptor Olfr169 = molecular target: T1, mouse receptor Olfr169 (Mus musculus, UniProt Q7TS53); test: cell-based dose-response, cAMP increase by HTRF, HEK293T cells (endogenous RTP1 activated) co-transfected with human Golf, Lucy-FLAG-Rho tagged receptor
T1 construct: cAMP HTRF
T1 sequence (Q7TS53 1-313): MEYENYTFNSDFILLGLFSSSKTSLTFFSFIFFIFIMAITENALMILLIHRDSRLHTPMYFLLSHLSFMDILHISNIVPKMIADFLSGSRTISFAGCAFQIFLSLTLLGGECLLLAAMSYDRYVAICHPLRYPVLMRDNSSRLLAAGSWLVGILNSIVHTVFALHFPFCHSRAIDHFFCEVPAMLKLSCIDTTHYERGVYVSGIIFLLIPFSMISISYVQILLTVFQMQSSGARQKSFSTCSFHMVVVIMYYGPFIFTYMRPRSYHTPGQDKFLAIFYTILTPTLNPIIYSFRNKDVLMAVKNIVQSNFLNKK
Protocol: (§1) Functional dose-response experiments were performed to evaluate the level of DMTS activity of the modified cell line expressing individual putative DMTS receptors. Using a cell-based assay, mouse receptor Olfr1193, Olfr1093, Olfr1097, Olrf166, Olfr169, Olfr738 and Olfr742, and human receptor OR4S2 and OR52N5 were tested in an HEK293T cell line wherein the endogenous RTP1 gene has been activated and the odorant receptor chaperone protein was expressed (described in WO2016/201153). The mouse receptor genes were tagged with a Lucy-FLAG®-Rho tag combination and the human receptors were tagged with a Rho-FLAG® tag combination resulting in a tag:receptor fusion protein for the cell based assay. Receptor genes were co-transfected with the canonical olfactory human G-protein alpha subunit Golf gene and were exposed to increasing concentrations of the malodor odorant. Co-expression of the human Golf activates the Gs transduction pathway that leads to an internal cAMP increase upon binding to the appropriate ligand. Odorant-induced activity was detected by measuring the cAMP increase in the cytosol using an Homogeneous Time Resolved Fluorescence (HTRF) based kit (CisBio, cAMP dynamic 2 kit, cat. 62AM4PEJ). […] The activity levels are reported by the potency of the DMTS induced-response for each receptor as a measure of the EC50 value (the effective concentration at which the receptor responds at its half-maximal activation efficacy level for a given compound).
(§2) Functional dose-response experiments were performed to confirm the DMTS activity on the DMTS receptors identified in Example 2 and to further characterize their response to DMDS. Using the same cell-based assay described in Example 2, mouse receptors Olfr1193, Olfr1093, Olfr1097, Olfr166, Olfr169, Olfr738, Olfr742 and of human odorant receptor OR4S2 were tested with increasing concentration of DMTS, DMDS or butyric acid (control). […] A weak response for OR4S2 and Olfr169 to butyric acid was visible but was too weak to consider butyric acid as a representative ligand for these receptors. The activity levels are reported by the potency of DMTS or DMDS induced-response for each receptor as a measure of the EC50 value, EC50DMTS and EC50DMDS respectively. […] Competitive antagonists at the malodor binding site of these receptors have the potential to reduce the unpleasant perception of both DMTS and DMDS.

mouse receptor Olfr1093 = molecular target: T2, mouse receptor Olfr1093 (Mus musculus, UniProt B2RR12); test: as above
T2 construct: cAMP HTRF
T2 sequence (B2RR12 1-322): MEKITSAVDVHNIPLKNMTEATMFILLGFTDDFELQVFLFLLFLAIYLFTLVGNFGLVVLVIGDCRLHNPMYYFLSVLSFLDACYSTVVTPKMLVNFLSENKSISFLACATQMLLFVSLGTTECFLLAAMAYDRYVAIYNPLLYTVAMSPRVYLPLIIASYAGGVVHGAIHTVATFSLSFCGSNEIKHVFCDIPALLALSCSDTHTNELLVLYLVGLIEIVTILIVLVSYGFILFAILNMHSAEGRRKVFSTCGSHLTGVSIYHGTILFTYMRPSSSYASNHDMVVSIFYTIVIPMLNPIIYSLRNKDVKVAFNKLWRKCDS
Protocol: as §1, §2

mouse receptor Olfr166 = molecular target: T3, mouse receptor Olfr166 (Mus musculus, UniProt Q0VEL6); test: as above
T3 construct: cAMP HTRF
T3 sequence (Q0VEL6 1-312): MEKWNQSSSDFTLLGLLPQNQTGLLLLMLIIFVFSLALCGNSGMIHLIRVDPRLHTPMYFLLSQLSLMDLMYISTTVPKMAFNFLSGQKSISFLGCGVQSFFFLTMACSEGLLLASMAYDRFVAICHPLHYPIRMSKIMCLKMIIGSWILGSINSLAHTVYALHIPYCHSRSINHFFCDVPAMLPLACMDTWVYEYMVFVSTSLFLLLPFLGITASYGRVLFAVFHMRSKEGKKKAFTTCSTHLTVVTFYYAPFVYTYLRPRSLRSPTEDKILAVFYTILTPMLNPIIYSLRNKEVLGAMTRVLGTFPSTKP
Protocol: as §1, §2

[1] = test system: mouse receptors Olfr1193, Olfr1093, Olfr1097, Olfr166, Olfr169, Olfr738, Olfr742 and human odorant receptor OR4S2; test: cAMP HTRF dose-response assay, DMTS/DMDS response profiles (Example 5); assay type: cell-based; settings: increasing concentration of compound; relative to butyric acid control
Protocol: Functional dose-response experiments were performed to evaluate the level of DMTS activity of the modified cell line expressing individual putative DMTS receptors. Using a cell-based assay, mouse receptor Olfr1193, Olfr1093, Olfr1097, Olrf166, Olfr169, Olfr738 and Olfr742, and human receptor OR4S2 and OR52N5 were tested in an HEK293T cell line wherein the endogenous RTP1 gene has been activated and the odorant receptor chaperone protein was expressed (described in WO2016/201153). The mouse receptor genes were tagged with a Lucy-FLAG®-Rho tag combination and the human receptors were tagged with a Rho-FLAG® tag combination resulting in a tag:receptor fusion protein for the cell based assay. Receptor genes were co-transfected with the canonical olfactory human G-protein alpha subunit Golf gene and were exposed to increasing concentrations of the malodor odorant. Co-expression of the human Golf activates the Gs transduction pathway that leads to an internal cAMP increase upon binding to the appropriate ligand. Odorant-induced activity was detected by measuring the cAMP increase in the cytosol using an Homogeneous Time Resolved Fluorescence (HTRF) based kit (CisBio, cAMP dynamic 2 kit, cat. 62AM4PEJ). […]

With CSSSC [DMTS, dimethyl trisulfide] the pEC50 (mouse receptor Olfr169; FIG. 2, Example 2, SEQ ID NO: 10) was 4.49, the pEC50 (mouse receptor Olfr169; FIG. 5, Example 5, SEQ ID NO: 10) was 4.64 and the pEC50 (mouse receptor Olfr1093; FIG. 2, Example 2, SEQ ID NO: 4) was 4.34. The pEC50 (mouse receptor Olfr1093; FIG. 5, Example 5, SEQ ID NO: 4) was 4.21, the pEC50 (mouse receptor Olfr166; FIG. 2, Example 2, SEQ ID NO: 8) was 5.30 and the pEC50 (mouse receptor Olfr166; FIG. 5, Example 5, SEQ ID NO: 8) was 4.96. The “receptor activity (cAMP increase)” value [1] was “strong dose-dependent increase of the receptor activity”.
